Data reported in patent US11661403B2, “Oxadiazole compounds” (Vivace Therapeutics, Inc., priority 2018, dated 2023).

Tested on: 8XTBD luciferase reporter (YAP) in HEK293T cells
Assay: YAP Reporter Assay
Assay type: cell-based
Conditions: Homo sapiens, HEK-293T; HEK293T cells stably transfected with 8XTBD luciferase reporter and pRLTK; 24-hr incubation; top concentration 3 μM; read-out: Firefly Luciferase IC50

CNC1(c2nnc(-c3ccccc3Nc3ccc(C(F)(F)F)cc3)o2)CC1 [Compound 153, 2-(5-(1-(methylamino)cyclopropyl)-1,3,4-oxadiazol-2-yl)-N-(4-(trifluoromethyl)phenyl)aniline] gave an IC50 of 100 to 1000 nM.

In the case of CN(C#N)C1(c2nnc(-c3ccccc3Nc3ccc(C(F)(F)F)cc3)o2)CC1 [Compound 155, N-methyl-N-(1-(5-(2-((4-(trifluoromethyl)phenyl)amino)phenyl)-1,3,4-oxadiazol-2-yl)cyclopropyl)cyanamide], the IC50 is reported as < 100 nM.

Work on CNC(C)(C)c1nnc(-c2ccccc2Nc2ccc(C(F)(F)F)cc2)o1 [Compound 156, 2-(5-(2-(methylamino)propan-2-yl)-1,3,4-oxadiazol-2-yl)-N-(4-(trifluoromethyl)phenyl)aniline] yielded an IC50 of 100 to 1000 nM.

With CN(C#N)C(C)(C)c1nnc(-c2ccccc2Nc2ccc(C(F)(F)F)cc2)o1 [Compound 158, N-methyl-N-(2-(5-(2-((4-(trifluoromethyl)phenyl)amino)phenyl)-1,3,4-oxadiazol-2-yl)propan-2-yl)cyanamide] the IC50 was < 100 nM.

CNC(C)c1nnc(-c2ccccc2Nc2ccc(C(F)(F)F)cc2)o1 (stereo not shown) [Compound 159, 2-(5-(1-(methylamino)ethyl)-1,3,4-oxadiazol-2-yl)-N-(4-(trifluoromethyl)phenyl)aniline] was tested, and the IC50 was 100 to 1000 nM.

CC(c1nnc(-c2ccccc2Nc2ccc(C(F)(F)F)cc2)o1)N(C)C#N (stereo not shown) [Compound 161, N-methyl-N-(1-(5-(2-((4-(trifluoromethyl)phenyl)amino)phenyl)-1,3,4-oxadiazol-2-yl)ethyl)cyanamide] was tested, and the IC50 was < 100 nM.

CC(C)(C(N)=O)c1nnc(-c2ccccc2Nc2ccc(C(F)(F)F)cc2)o1 [Compound 162, 2-methyl-2-(5-(2-((4-(trifluoromethyl)phenyl)amino)phenyl)-1,3,4-oxadiazol-2-yl)propanamide] was tested, and the IC50 was < 100 nM.

CC(C)(c1nnc(-c2ccccc2Nc2ccc(C(F)(F)F)cc2)o1)S(C)(=O)=O [Compound 163, 2-(5-(2-(methylsulfonyl)propan-2-yl)-1,3,4-oxadiazol-2-yl)-N-(4-(trifluoromethyl)phenyl)aniline] gave an IC50 of 100 to 1000 nM.

With CC(C)(C#N)c1nnc(-c2ccccc2Nc2ccc(C(F)(F)F)cc2)o1 [Compound 164, 2-methyl-2-(5-(2-((4-(trifluoromethyl)phenyl)amino)phenyl)-1,3,4-oxadiazol-2-yl)propanenitrile] the IC50 was < 100 nM.

For O=C(O)C1(c2nnc(-c3ccccc3Nc3ccc(C(F)(F)F)cc3)o2)CC1 [Compound 166, 1-(5-(2-((4-(trifluoromethyl)phenyl)amino)phenyl)-1,3,4-oxadiazol-2-yl)cyclopropane-1-carboxylic Acid], the IC50 was < 100 nM.

For CN(Cc1nnc(-c2ccccc2Nc2ccc(C(F)(F)F)cc2)o1)C(=O)OC(C)(C)C [Compound 167, Tert-Butyl Methyl((5-(2-((4-(trifluoromethyl)phenyl)amino)phenyl)-1,3,4-oxadiazol-2-yl)methyl)carbamate], the IC50 was 1000 to 5000 nM.

With CN(C#N)Cc1nnc(-c2ccccc2Nc2ccc(C(F)(F)F)cc2)o1 [Compound 168, N-methyl-N-((5-(2-((4-(trifluoromethyl)phenyl)amino)phenyl)-1,3,4-oxadiazol-2-yl)methyl)cyanamide] the IC50 was < 100 nM.

With FC(F)(F)c1ccc(Nc2ccccc2-c2nnc(C3CCCN3)o2)cc1 (stereo not shown) [Compound 169, 2-(5-(pyrrolidin-2-yl)-1,3,4-oxadiazol-2-yl)-N-(4-(trifluoromethyl)phenyl)aniline] the IC50 was 100 to 1000 nM.

For N#CN1CCCC1c1nnc(-c2ccccc2Nc2ccc(C(F)(F)F)cc2)o1 (stereo not shown) [Compound 171, 2-(5-(2-((4-(trifluoromethyl)phenyl)amino)phenyl)-1,3,4-oxadiazol-2-yl)pyrrolidine-1-carbonitrile], the IC50 was < 100 nM.

Compound CNCCc1nnc(-c2ccccc2Nc2ccc(C(F)(F)F)cc2)o1 [Compound 172, 2-(5-(2-(methylamino)ethyl)-1,3,4-oxadiazol-2-yl)-N-(4-(trifluoromethyl)phenyl)aniline] has an IC50 of 1000 to 5000 nM.

With CN(C#N)CCc1nnc(-c2ccccc2Nc2ccc(C(F)(F)F)cc2)o1 [Compound 174, N-methyl-N-(2-(5-(2-((4-(trifluoromethyl)phenyl)amino)phenyl)-1,3,4-oxadiazol-2-yl)ethyl)cyanamide] the IC50 was < 100 nM.

FC(F)(F)c1ccc(Nc2ccccc2-c2nnc(C3CCNC3)o2)cc1 (stereo not shown) [Compound 175, 2-(5-(pyrrolidin-3-yl)-1,3,4-oxadiazol-2-yl)-N-(4-(trifluoromethyl)phenyl)aniline] showed an IC50 of 100 to 1000 nM.

Compound N#CN1CCC(c2nnc(-c3ccccc3Nc3ccc(C(F)(F)F)cc3)o2)C1 (stereo not shown) [Compound 177, 3-(5-(2-((4-(trifluoromethyl)phenyl)amino)phenyl)-1,3,4-oxadiazol-2-yl)pyrrolidine-1-carbonitrile] has an IC50 of 100 to 1000 nM.

For CC1(c2nnc(-c3ccccc3Nc3ccc(C(F)(F)F)cc3)o2)CCCO1 (stereo not shown) [Compound 178, 2-(5-(2-methyltetrahydrofuran-2-yl)-1,3,4-oxadiazol-2-yl)-N-(4-(trifluoromethyl)phenyl)aniline], the IC50 was < 100 nM.

In the case of CC(O)(CCO)c1nnc(-c2ccccc2Nc2ccc(C(F)(F)F)cc2)o1 (stereo not shown) [Compound 179, 3-(5-(2-((4-(trifluoromethyl)phenyl)amino)phenyl)-1,3,4-oxadiazol-2-yl)butane-1,3-diol], the IC50 is reported as < 100 nM.

With CC1(c2nnc(-c3ccccc3Nc3ccc(C(F)(F)F)cc3)o2)CCO1 (stereo not shown) [Compound 180, 2-(5-(2-methyloxetan-2-yl)-1,3,4-oxadiazol-2-yl)-N-(4-(trifluoromethyl)phenyl)aniline] the IC50 was < 100 nM.

In the case of FC(F)(F)c1ccc(Nc2ccccc2-c2nnc(C3CCCO3)o2)cc1 (stereo not shown) [Compound 181, 2-(5-(tetrahydrofuran-2-yl)-1,3,4-oxadiazol-2-yl)-N-(4-(trifluoromethyl)phenyl)aniline], the IC50 is reported as 100 to 1000 nM.

In the case of FC(F)(F)c1ccc(Nc2ccccc2-c2nnc(C3CCO3)o2)cc1 (stereo not shown) [Compound 182, 2-(5-(oxetan-2-yl)-1,3,4-oxadiazol-2-yl)-N-(4-(trifluoromethyl)phenyl)aniline], the IC50 is reported as < 100 nM.

CC1(c2nnc(-c3ccccc3Nc3ccc(C(F)(F)F)cc3)o2)COC1 [Compound 183, 2-(5-(3-methyloxetan-3-yl)-1,3,4-oxadiazol-2-yl)-N-(4-(trifluoromethyl)phenyl)aniline] showed an IC50 of 100 to 1000 nM.

With N#CC1(c2nnc(-c3ccccc3Nc3ccc(C(F)(F)F)cc3)o2)CC1 [Compound 184, 1-(5-(2-((4-(trifluoromethyl)phenyl)amino)phenyl)-1,3,4-oxadiazol-2-yl)cyclopropane-1-carbonitrile] the IC50 was < 100 nM.

CN(C)C(=O)C1(c2nnc(-c3ccccc3Nc3ccc(C(F)(F)F)cc3)o2)CC1 [Compound 185, N,N-dimethyl-1-(5-(2-((4-(trifluoromethyl)phenyl)amino)phenyl)-1,3,4-oxadiazol-2-yl)cyclopropane-1-carboxamide] was tested, and the IC50 was 100 to 1000 nM.

In the case of CNC(=O)C1(c2nnc(-c3ccccc3Nc3ccc(C(F)(F)F)cc3)o2)CC1 [Compound 186, N-methyl-1-(5-(2-((4-(trifluoromethyl)phenyl)amino)phenyl)-1,3,4-oxadiazol-2-yl)cyclopropane-1-carboxamide], the IC50 is reported as 100 to 1000 nM.

NC(=O)C1(c2nnc(-c3ccccc3Nc3ccc(C(F)(F)F)cc3)o2)CC1 [Compound 187, 1-(5-(2-((4-(trifluoromethyl)phenyl)amino)phenyl)-1,3,4-oxadiazol-2-yl)cyclopropane-1-carboxamide] was tested, and the IC50 was < 100 nM.
